US20240116985A1, “STAPLED PEPTIDES AND METHODS THEREOF” (priority 2020, published 2024)
Read-outs that look alike come from different tables or passages of the source.

Key:
[1] = target: T1, full-length beta-Catenin (Uniprot ID P35222) (Homo sapiens, UniProt P35222); experiment: Fluorescence polarization IC50 (beta-catenin / 5FAM-TCF4 10-53 competition); assay type: binding
T1 construct: 10 nM full-length beta-Catenin (Uniprot ID P35222)
T1 sequence (P35222 1-781): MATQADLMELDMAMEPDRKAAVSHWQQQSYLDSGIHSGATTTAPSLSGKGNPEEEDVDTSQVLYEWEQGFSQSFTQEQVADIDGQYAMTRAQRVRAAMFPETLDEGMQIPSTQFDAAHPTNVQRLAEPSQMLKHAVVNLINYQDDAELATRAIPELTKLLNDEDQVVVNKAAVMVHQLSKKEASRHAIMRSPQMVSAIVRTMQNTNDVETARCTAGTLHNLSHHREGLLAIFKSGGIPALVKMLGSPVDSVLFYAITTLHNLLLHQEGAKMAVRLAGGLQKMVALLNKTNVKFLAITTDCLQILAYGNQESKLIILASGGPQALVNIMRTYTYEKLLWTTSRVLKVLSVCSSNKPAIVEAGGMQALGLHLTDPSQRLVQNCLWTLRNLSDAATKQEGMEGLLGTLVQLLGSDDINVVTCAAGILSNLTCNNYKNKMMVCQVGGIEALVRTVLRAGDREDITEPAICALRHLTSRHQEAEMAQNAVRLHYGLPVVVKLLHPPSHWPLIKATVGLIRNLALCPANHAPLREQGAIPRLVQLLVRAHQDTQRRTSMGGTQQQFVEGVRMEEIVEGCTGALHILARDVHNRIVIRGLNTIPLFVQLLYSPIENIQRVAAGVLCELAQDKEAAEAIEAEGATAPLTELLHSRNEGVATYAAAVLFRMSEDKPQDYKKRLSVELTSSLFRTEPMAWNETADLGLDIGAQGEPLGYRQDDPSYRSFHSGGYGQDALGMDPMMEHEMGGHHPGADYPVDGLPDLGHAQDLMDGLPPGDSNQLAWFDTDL

[2] = CHI Log D procedure; assay type: physicochemical; conditions: for chromatographic logD: pH 7.4, CHI Log D; for CHI Log D: pH 7.4
[3] = fluorescence polarization, beta-catenin, read-out: FP EC50

| IC50 ([1]; read-out: beta-Catenin FP IC50) [nM] | chromatographic logD [2] | IC50 [1, 3] [nM] | CHI Log D [2] | SMILES |
| --- | --- | --- | --- | --- |
| 221 | 3.36 | – | – | CC(=O)N1CCC[C@]12CC=CCCCC1(CCCC=CCCCCCC[C@@](C)(C(=O)N[C@@H](Cc3ccccc3Cl)C(=O)N[C@@H](Cc3csc4ccccc34)C(=O)N[C@@H](CCC(N)=O)C(N)=O)NC(=O)[C@H](Cc3ccccc3)NC(=O)[C@H](Cc3ccccc3)NC(=O)[C@H](C)NC(=O)[C@H](C)NC(=O)[C@H](CN(CC(=O)O)CC(F)(F)F)NC(=O)[C@H](CC(=O)O)NC1=O)NC(=O)[C@H](CC(C)(C)C)NC(=O)[C@H](CC(=O)O)NC2=O (stereo partly drawn) [I-931, Ac-PL3-Asp-Npg-B5-Asp-TfeGA-Ala-Ala-Phe-Phe-S8-2C1F-BztA-Gln-NH2] |
| 69 | 2.82 | – | – | CC(=O)N1CCC[C@]12CC=CCCCC1(CCCC=CCCCCCC[C@@](C)(C(=O)N[C@@H](Cc3ccccc3C(F)(F)F)C(=O)N[C@@H](Cc3csc4ccccc34)C(=O)N[C@@H](CCC(N)=O)C(N)=O)NC(=O)[C@H](CC(N)=O)NC(=O)[C@H](Cc3ccccc3)NC(=O)[C@H](C)NC(=O)[C@H](C)NC(=O)[C@H](CN(CC(=O)O)CC(F)(F)F)NC(=O)[C@H](CC(=O)O)NC1=O)NC(=O)[C@H](CC(C)(C)C)NC(=O)[C@H](CC(=O)O)NC2=O (stereo partly drawn) [I-934, Ac-PL3-Asp-Npg-B5-Asp-TfeGA-Ala-Ala-Phe-Asn-S8-2F3MeF-BztA-Gln-NH2] |
| 9 | 2.16 | – | – | C#CCOCCOCCOCCOCCC(=O)NCCCC[C@H](NC(=O)[C@H](CCC(N)=O)NC(=O)[C@H](Cc1csc2ccccc12)NC(=O)[C@H](Cc1ccsc1)NC(=O)[C@]12CCN(C1)C(=O)OCCCC=CCCCC1(CCCC=CC[C@]3(CCCN3C(C)=O)C(=O)N[C@@H](CC(=O)O)C(=O)N[C@@H](CC(C)(C)C)C(=O)N1)C(=O)N[C@@H](CC(=O)O)C(=O)N[C@@H](CC(=O)O)C(=O)N[C@@H](C)C(=O)N[C@@H](C)C(=O)N[C@@H](Cc1ccccc1)C(=O)N[C@@H](CC(N)=O)C(=O)N2)C(N)=O (stereo partly drawn) [I-938, Ac-PL3-Asp-Npg-B5-Asp-Asp-Ala-Ala-Phe-Asn-PyrS2-3Thi-BztA-Gln-[PropynPEG4]Lys-NH2] |
| 761 | – | 761 | 1.982 | CC(=O)N1CCC[C@]12CC=CCCCC1(CCCC=CCCCOC(=O)N3CC[C@@](C(=O)N[C@@H](Cc4ccsc4)C(=O)N[C@@H](Cc4csc5ccccc45)C(=O)N[C@@H](C)C(N)=O)(C3)NC(=O)[C@H](CC(N)=O)NC(=O)[C@H](Cc3ccccc3)NC(=O)[C@H](C)NC(=O)[C@H](C)NC(=O)[C@H](CN(CC(=O)O)CC(F)(F)F)NC(=O)[C@H](CC(=O)O)NC1=O)NC(=O)[C@H](CC(C)(C)C)NC(=O)[C@H](CC(=O)O)NC2=O (stereo partly drawn) [I-944, Ac-PL3-Asp-Npg-B5-Asp-TfeGA-Ala-Ala-Phe-Asn-PyrS2-3Thi-BztA-Ala-NH2] |
| 1080 | – | 1080 | 2.104 | CC(=O)N1CCC[C@]12CC=CCCCC1(CCCC=CCCCOC(=O)N3CC[C@@](C(=O)N[C@@H](Cc4ccsc4)C(=O)N[C@@H](Cc4csc5ccccc45)C(=O)N[C@@H](C)C(N)=O)(C3)NC(=O)[C@H](CC(N)=O)NC(=O)[C@H](Cc3ccccc3)NC(=O)[C@H](C)NC(=O)[C@H](C)NC(=O)[C@H](CN(CC(=O)O)CC(F)(F)F)NC(=O)[C@H](CC(=O)O)NC1=O)NC(=O)[C@H](CC(C)(C)C)NC(=O)[C@H](CC(=O)O)NC2=O (stereo partly drawn) [I-945, Ac-PL3-Asp-Npg-B5-Asp-TfeGA-Ala-Ala-Phe-Asn-PyrS2-3Thi-BztA-Ala-NH2] |
| 1210 | – | 1210 | 1.975 | CC(=O)N1CCC[C@]12CC=CCCCC1(CCCC=CCCCOC(=O)N3CC[C@@](C(=O)N[C@@H](Cc4ccsc4)C(=O)N[C@@H](Cc4csc5ccccc45)C(=O)N[C@@H](Cc4ccc(O)cc4)C(N)=O)(C3)NC(=O)[C@H](CC(N)=O)NC(=O)[C@H](Cc3ccccc3)NC(=O)[C@H](C)NC(=O)[C@H](C)NC(=O)[C@H](CN(CC(=O)O)CC(F)(F)F)NC(=O)[C@H](CC(=O)O)NC1=O)NC(=O)[C@H](CC(C)(C)C)NC(=O)[C@H](CC(=O)O)NC2=O (stereo partly drawn) [I-952, Ac-PL3-Asp-Npg-B5-Asp-TfeGA-Ala-Ala-Phe-Asn-PyrS2-3Thi-BztA-Tyr-NH2] |
| 407 | – | 407 | 2.046 | CC(=O)N1CCC[C@]12CC=CCCCC1(CCCC=CCCCOC(=O)N3CC[C@@](C(=O)N[C@@H](Cc4ccsc4)C(=O)N[C@@H](Cc4csc5ccccc45)C(=O)N[C@@H](CO)C(N)=O)(C3)NC(=O)[C@H](Cc3ccccc3)NC(=O)[C@H](Cc3ccccc3)NC(=O)[C@H](C)NC(=O)[C@H](C)NC(=O)[C@H](CN(CC(=O)O)CC(F)(F)F)NC(=O)[C@H](CC(=O)O)NC1=O)NC(=O)[C@H](CC(C)(C)C)NC(=O)[C@H](CC(=O)O)NC2=O (stereo partly drawn) [I-962, Ac-PL3-Asp-Npg-B5-Asp-TfeGA-Ala-Ala-Phe-Phe-PyrS2-3Thi-BztA-Ser-NH2] |
| 402 | – | 402 | 2.117 | CC(=O)N1CCC[C@]12CC=CCCCC1(CCCC=CCCCOC(=O)N3CC[C@@](C(=O)N[C@@H](Cc4ccsc4)C(=O)N[C@@H](Cc4csc5ccccc45)C(=O)N[C@@H](CO)C(N)=O)(C3)NC(=O)[C@H](Cc3ccccc3)NC(=O)[C@H](Cc3ccccc3)NC(=O)[C@H](C)NC(=O)[C@H](C)NC(=O)[C@H](CN(CC(=O)O)CC(F)(F)F)NC(=O)[C@H](CC(=O)O)NC1=O)NC(=O)[C@H](CC(C)(C)C)NC(=O)[C@H](CC(=O)O)NC2=O (stereo partly drawn) [I-963, Ac-PL3-Asp-Npg-B5-Asp-TfeGA-Ala-Ala-Phe-Phe-PyrS2-3Thi-BztA-Ser-NH2] |
| 1360 | – | 1360 | 1.853 | CCN(CC(=O)O)C[C@@H]1NC(=O)[C@H](CC(=O)O)NC(=O)C2(CCCC=CCCCOC(=O)N3CC[C@@](C(=O)N[C@@H](Cc4ccsc4)C(=O)N[C@@H](Cc4csc5ccccc45)C(=O)N[C@@H](CCC(N)=O)C(N)=O)(C3)NC(=O)[C@H](Cc3ccccc3)NC(=O)[C@H](Cc3ccccc3)NC(=O)[C@H](C)NC(=O)[C@H](C)NC1=O)CCCC=CC[C@]1(CCCN1C(C)=O)C(=O)N[C@@H](CC(=O)O)C(=O)N[C@@H](CC(C)(C)C)C(=O)N2 (stereo partly drawn) [I-970, Ac-PL3-Asp-Npg-B5-Asp-EtGA-Ala-Ala-Phe-Phe-PyrS2-3Thi-BztA-Gln-NH2] |
| 112 | – | 112 | 1.745 | CC(=O)N1CCC[C@]12CC=CCCCC1(CCCC=CCCCOC(=O)N3CC[C@@](C(=O)N[C@@H](Cc4ccsc4)C(=O)N[C@@H](Cc4csc5ccccc45)C(=O)N[C@@H](CCC(N)=O)C(N)=O)(C3)NC(=O)[C@H](CO)NC(=O)[C@H](Cc3ccccc3)NC(=O)[C@H](C)NC(=O)[C@H](C)NC(=O)[C@H](Cc3cccc(C(=O)O)c3)NC(=O)[C@H](CC(=O)O)NC1=O)NC(=O)[C@H](CC(C)(C)C)NC(=O)[C@H](CC(=O)O)NC2=O (stereo partly drawn) [I-978, Ac-PL3-Asp-Npg-B5-Asp-3COOHF-Ala-Ala-Phe-Ser-PyrS2-3Thi-BztA-Gln-NH2] |
| 240 | – | 240 | 1.809 | CC(=O)N1CCC[C@]12CC=CCCCC1(CCCC=CCCCOC(=O)N3CC[C@@](C(=O)N[C@@H](Cc4ccsc4)C(=O)N[C@@H](Cc4csc5ccccc45)C(=O)N[C@@H](CCC(N)=O)C(N)=O)(C3)NC(=O)[C@H](CO)NC(=O)[C@H](Cc3ccccc3)NC(=O)[C@H](C)NC(=O)[C@H](C)NC(=O)[C@H](Cc3cccc(C(=O)O)c3)NC(=O)[C@H](CC(=O)O)NC1=O)NC(=O)[C@H](CC(C)(C)C)NC(=O)[C@H](CC(=O)O)NC2=O (stereo partly drawn) [I-979, Ac-PL3-Asp-Npg-B5-Asp-3COOHF-Ala-Ala-Phe-Ser-PyrS2-3Thi-BztA-Gln-NH2] |
| 520 | – | 520 | 2.044 | CC(=O)N1CCC[C@]12CC=CCCCC1(CCCC=CCCCOC(=O)N3CC[C@@](C(=O)N[C@@H](Cc4ccccc4Cl)C(=O)N[C@@H](Cc4csc5ccccc45)C(=O)N[C@@H](CO)C(N)=O)(C3)NC(=O)[C@H](CC(C)C)NC(=O)[C@H](Cc3ccccc3)NC(=O)[C@H](C)NC(=O)[C@H](C)NC(=O)[C@H](CC(=O)O)NC(=O)[C@H](CC(=O)O)NC1=O)NC(=O)[C@H](CC(C)(C)C)NC(=O)[C@H](CC(=O)O)NC2=O (stereo partly drawn) [I-1065, Ac-PL3-Asp-Npg-B5-Asp-Asp-Ala-Ala-Phe-Leu-PyrS2-2C1F-BztA-Ser-NH2] |
| 517 | – | 517 | 2.147 | CC(=O)N1CCC[C@]12CC=CCCCC1(CCCC=CCCCOC(=O)N3CC[C@@](C(=O)N[C@@H](Cc4ccccc4Cl)C(=O)N[C@@H](Cc4csc5ccccc45)C(=O)N[C@@H](CO)C(N)=O)(C3)NC(=O)[C@H](CC(C)C)NC(=O)[C@H](Cc3ccccc3)NC(=O)[C@H](C)NC(=O)[C@H](C)NC(=O)[C@H](CCC(=O)O)NC(=O)[C@H](CC(=O)O)NC1=O)NC(=O)[C@H](CC(C)(C)C)NC(=O)[C@H](CC(=O)O)NC2=O (stereo partly drawn) [I-1067, Ac-PL3-Asp-Npg-B5-Asp-Glu-Ala-Ala-Phe-Leu-PyrS2-2C1F-BztA-Ser-NH2] |
